Series [1] can be described thus: Kinetic solubility of the compound. Format: physicochemical. The settings on record: read-out: Kinetic_solubility.
For series [2], the target named is T1, Tyrosine-protein kinase JAK2 (Homo sapiens, UniProt O60674).
Description: Inhibition of JAK2 in HEL 92.1.7 cells assessed as inhibition of STAT3 phosphorylation
The target in series [3] is T1, Tyrosine-protein kinase JAK2. This is another data set of the same source.
Description: Inhibition of JAK2 in HEL 92.1.7 cells assessed as inhibition of STAT1 phosphorylation
The target of series [4] is T2, Tyrosine-protein kinase JAK3 (Homo sapiens, UniProt P52333).
T2 sequence (P52333 whole entry): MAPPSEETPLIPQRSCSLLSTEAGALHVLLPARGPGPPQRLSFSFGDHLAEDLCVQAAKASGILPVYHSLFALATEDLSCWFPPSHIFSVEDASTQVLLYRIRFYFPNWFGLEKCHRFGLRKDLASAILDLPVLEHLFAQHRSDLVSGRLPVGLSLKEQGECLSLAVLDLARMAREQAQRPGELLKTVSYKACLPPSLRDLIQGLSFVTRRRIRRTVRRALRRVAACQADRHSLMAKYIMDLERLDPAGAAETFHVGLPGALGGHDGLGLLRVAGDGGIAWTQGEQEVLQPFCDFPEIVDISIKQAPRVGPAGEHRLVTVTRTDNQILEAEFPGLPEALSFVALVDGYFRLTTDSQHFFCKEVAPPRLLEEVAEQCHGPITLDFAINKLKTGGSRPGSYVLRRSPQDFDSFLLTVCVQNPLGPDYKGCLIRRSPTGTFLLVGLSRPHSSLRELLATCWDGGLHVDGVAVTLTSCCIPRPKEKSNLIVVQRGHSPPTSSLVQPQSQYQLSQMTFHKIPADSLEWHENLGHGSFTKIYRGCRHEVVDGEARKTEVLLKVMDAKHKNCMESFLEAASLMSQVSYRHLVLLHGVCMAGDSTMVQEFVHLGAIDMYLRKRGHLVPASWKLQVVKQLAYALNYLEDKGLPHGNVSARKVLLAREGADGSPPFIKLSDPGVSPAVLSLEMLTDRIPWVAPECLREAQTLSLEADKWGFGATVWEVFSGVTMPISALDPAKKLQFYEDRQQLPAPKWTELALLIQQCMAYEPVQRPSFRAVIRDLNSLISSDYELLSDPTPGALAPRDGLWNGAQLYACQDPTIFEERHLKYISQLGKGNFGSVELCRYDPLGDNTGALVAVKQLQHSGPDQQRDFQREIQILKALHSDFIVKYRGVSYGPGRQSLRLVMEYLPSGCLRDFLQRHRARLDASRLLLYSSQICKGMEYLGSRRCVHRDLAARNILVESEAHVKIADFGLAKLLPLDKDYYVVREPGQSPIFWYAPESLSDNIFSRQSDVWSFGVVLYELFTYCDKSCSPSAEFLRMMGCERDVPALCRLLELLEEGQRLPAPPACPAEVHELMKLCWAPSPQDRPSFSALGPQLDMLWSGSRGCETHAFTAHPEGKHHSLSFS

For series [5], the target named is T1, Tyrosine-protein kinase JAK2. This is another data set of the same source.
A short description of series [6]: Selectivity ratio of IC50 for JAK3 to IC50 for JAK2.

Values after ≈ are worked out from the molar mass of the structure shown.

T1 sequence (O60674 whole entry): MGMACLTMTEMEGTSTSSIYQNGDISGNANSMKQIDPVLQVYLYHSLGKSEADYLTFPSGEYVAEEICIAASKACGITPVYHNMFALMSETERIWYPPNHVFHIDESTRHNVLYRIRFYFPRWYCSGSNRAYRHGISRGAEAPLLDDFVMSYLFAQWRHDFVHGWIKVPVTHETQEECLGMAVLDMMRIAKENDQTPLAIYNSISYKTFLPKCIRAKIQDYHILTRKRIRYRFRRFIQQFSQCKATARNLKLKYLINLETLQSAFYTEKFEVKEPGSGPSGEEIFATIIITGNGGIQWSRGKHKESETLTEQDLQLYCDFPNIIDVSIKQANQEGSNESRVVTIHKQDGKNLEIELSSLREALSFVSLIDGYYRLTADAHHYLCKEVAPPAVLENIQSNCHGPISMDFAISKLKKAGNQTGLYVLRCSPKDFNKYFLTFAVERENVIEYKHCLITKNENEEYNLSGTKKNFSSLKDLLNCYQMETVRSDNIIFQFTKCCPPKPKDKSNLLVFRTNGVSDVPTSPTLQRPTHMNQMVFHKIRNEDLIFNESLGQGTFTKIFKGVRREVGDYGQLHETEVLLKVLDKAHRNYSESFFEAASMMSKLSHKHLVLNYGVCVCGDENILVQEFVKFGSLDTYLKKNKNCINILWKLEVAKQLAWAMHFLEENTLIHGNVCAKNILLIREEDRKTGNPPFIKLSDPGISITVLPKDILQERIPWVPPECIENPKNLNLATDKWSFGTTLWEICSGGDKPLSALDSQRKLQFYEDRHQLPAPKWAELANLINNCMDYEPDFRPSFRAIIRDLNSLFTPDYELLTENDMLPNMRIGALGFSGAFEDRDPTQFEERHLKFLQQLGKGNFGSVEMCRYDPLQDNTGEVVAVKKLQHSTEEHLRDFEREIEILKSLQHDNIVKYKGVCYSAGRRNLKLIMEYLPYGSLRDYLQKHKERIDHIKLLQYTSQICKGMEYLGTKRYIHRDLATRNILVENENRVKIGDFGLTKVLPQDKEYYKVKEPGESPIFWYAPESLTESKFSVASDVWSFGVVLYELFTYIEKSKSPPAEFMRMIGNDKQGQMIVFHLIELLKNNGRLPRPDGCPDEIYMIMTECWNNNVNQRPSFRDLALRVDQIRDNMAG

For orientation: IC50 means the concentration that inhibits the measured activity by half. On to `CC(=O)Nc1ccc(-c2ccnc(Nc3ccccc3)n2)cc1`, for which the solubility kinetic in series [1] amounted to 234 µM (≈ 71.2 µg/mL). The half-inhibitory concentration (IC50) is 1970 nM in series [2], 1000 nM in series [3], 1150 nM in series [4] and 12.8 nM in series [5].
With `CC(=O)Nc1ccc(-c2ccnc(Nc3cccc(N4CCOCC4)c3)n2)cc1`, the IC50 was 591 nM in series [2], 615 nM in series [3], greater than 980 nM in series [4] and 4.2 nM in series [5].
For `CC(=O)Nc1ccc(-c2cc(C)nc(Nc3ccc(N4CCOCC4)cc3)n2)cc1`, the IC50 is greater than 30000 nM in series [3], greater than 980 nM in series [4] and greater than 980 nM in series [5].
As for `CC(=O)Nc1ccc(-c2nc(Nc3ccc(N4CCOCC4)cc3)ncc2C(F)(F)F)cc1`, the IC50 was 2700 nM in series [3], greater than 980 nM in series [4] and 39.6 nM in series [5].
With `O=C(Nc1ccc(-c2ccnc(Nc3ccc(N4CCOCC4)cc3)n2)cc1)[C@H]1CCNC1`, the IC50 in series [3] is greater than 30000 nM; in series [4] it was 368 nM; in series [5], 5.7 nM.
`CC(=O)Nc1ccc(-c2ccnc(Nc3cccc(NC(=O)c4ccccc4Cl)c3)n2)cc1`: the IC50 is greater than 30000 nM in series [3], greater than 980 nM in series [4] and 6.9 nM in series [5].
Regarding `N[C@H](CO)C(=O)Nc1ccc(-c2ccnc(Nc3ccc(N4CCOCC4)cc3)n2)cc1`, the IC50 came out at 1390 nM in series [2], 622 nM in series [3], 160 nM in series [4] and 2.7 nM in series [5].
Taken in the same sequence, the figures for `CN1CCC[C@@H]1C(=O)Nc1ccc(-c2ccnc(Nc3ccc(N4CCOCC4)cc3)n2)cc1` were 1050 nM, 746 nM, 484 nM and 5.2 nM.
In series [4], `CC(=O)Nc1ccc(-c2nc(Nc3ccc(N4CCOCC4)cc3)ncc2C)cc1` showed an IC50 of 105 nM.
Regarding `CC(=O)Nc1ccc(-c2ccnc(NCCCNC(=O)c3c(Cl)cccc3Cl)n2)cc1`, the solubility kinetic in series [1] is 6.5 µM (≈ 2.98 µg/mL). Further, in series [6], the Ratio IC50 is greater than 50. Further, the IC50 is 8140 nM in series [3], greater than 5000 nM in series [4] and 104 nM in series [5].
As to `CC(=O)Nc1ccc(-c2nc(Nc3ccc(N4CCOCC4)cc3)ncc2F)cc1`, the IC50 in series [3] was 6490 nM; in series [4], greater than 980 nM; in series [5], 4.4 nM.
On to `C[C@@H](N)C(=O)Nc1ccc(-c2ccnc(Nc3ccc(N4CCOCC4)cc3)n2)cc1`, for which the IC50 in series [2] was determined as 452 nM; in series [3] it was 328 nM; in series [4] it was 307 nM; in series [5] it was 1.7 nM.
With `CC(=O)Nc1ccc(-c2cc(Nc3ccc(N4CCOCC4)cc3)ncn2)cc1`, the values for the IC50 in series [3], in series [4] and in series [5] were greater than 30000 nM, greater than 980 nM and greater than 980 nM, respectively.
In the case of `CC(=O)Nc1ccc(-c2ccnc(Nc3cccc(N4CCCCC4)c3)n2)cc1`, the IC50 in series [2] was 1330 nM; in series [3], 956 nM; in series [4], greater than 980 nM; in series [5], 6.5 nM.
Consider `CCN1CCC[C@@H]1C(=O)Nc1ccc(-c2ccnc(Nc3ccc(N4CCOCC4)cc3)n2)cc1`, for which the IC50 in series [2] stood at 2170 nM; in series [3], 1430 nM; in series [5], 9.1 nM.
With `CC(=O)Nc1ccc(-c2ccnc(NC3CCCC(NC(=O)c4c(Cl)cccc4Cl)C3)n2)cc1` (configuration not stated), the IC50 in series [3] was greater than 30000 nM; in series [4] it was greater than 980 nM; in series [5], greater than 980 nM.
Regarding `C[C@H](N)C(=O)Nc1ccc(-c2ccnc(Nc3ccc(N4CCOCC4)cc3)n2)cc1`, the IC50 in series [2] is 1510 nM; in series [3], 1050 nM; in series [4], 298 nM; in series [5] it was 8.7 nM.
Turning to `CC(=O)Nc1ccc(-c2ccnc(NCC3CN(C(=O)c4c(Cl)cccc4Cl)C3)n2)cc1`, the IC50 was greater than 30000 nM in series [3], 5000 nM in series [4] and 5000 nM in series [5].
For the molecule `CC(=O)Nc1ccc(-c2ccnc(Nc3cccc(NC(=O)c4c(Cl)cccc4Cl)c3)n2)cc1`, the half-inhibitory concentration (IC50) was 505 nM in series [2], 763 nM in series [3], greater than 980 nM in series [4] and 12.6 nM in series [5].
Molecule `CC(=O)Nc1ccc(-c2ccnc(Nc3cccc(NC(=O)c4ccccc4)c3)n2)cc1` yielded an IC50 in series [4] greater than 980 nM.
For `O=C1CC[C@H](C(=O)Nc2ccc(-c3ccnc(Nc4ccc(N5CCOCC5)cc4)n3)cc2)N1`, the IC50 in series [3] was greater than 30000 nM; in series [4] it was 61.7 nM; in series [5], 0.9 nM.
Consider `CC(=O)Nc1ccc(-c2ccnc(Nc3ccc(N4CCOCC4)cc3)n2)cc1`, for which the Ratio IC50 in series [6] is greater than 250. Further, the IC50 was 795 nM in series [2], 975 nM in series [3] and greater than 980 nM in series [4].
Regarding `CC(=O)Nc1ccc(-c2ccnc(Nc3cccc(NC(=O)c4c(Cl)cccc4Cl)n3)n2)cc1`, the IC50 in series [3] is greater than 30000 nM; in series [4] it was greater than 980 nM; in series [5], 130 nM.

The values are drawn from ChEMBL document CHEMBL2203210, “SAR and in vivo evaluation of 4-aryl-2-aminoalkylpyrimidines as potent and selective Janus kinase 2 (JAK2) inhibitors” (Bioorg Med Chem Lett, 2012).
